Assay results from article PMC10991380, “Cloning, functional expression, and pharmacological characterization of inwardly rectifying potassium channels (Kir) from Apis mellifera” (Scientific Reports, 2024).

Columns and labels:
Experiment in all cases: two-electrode voltage clamp, Xenopus oocytes
Assay type in all cases: cell-based, Apis mellifera
Conditions in all cases: 96 mM KCl Ringer, pH 7.6; holding potential -80 mV; VU041 in DMSO
AmKir2.3 = system: T1, AmKir2.3
T1 construct: homotetramer; N-terminal tail 31 residues shorter than AmKir2.2

AmKir1.1 = system: T2, AmKir1.1
T2 construct: homotetramer; longer N-terminal and shorter C-terminal tail than AmKir2

AmKir2.2 = system: T3, AmKir2.2
T3 construct: homotetramer; N-terminal tail 31 residues longer than AmKir2.3

O=C(Cn1nc(C(F)(F)F)c2c1CCCC2)N1CCCc2ccccc21 [VU041]
% inhibition at 10^-5 M (AmKir2.3): 24.04 ± 1.92%
% inhibition at 10^-4 M (AmKir1.1): 48.94 ± 3.79%
% inhibition at 10^-4 M (AmKir2.2): 45.65 ± 5.01%
